Measurements as given in patent US11608343B2, “Substituted pyrimido[5,4-d]pyrimidines as HER2 inhibitors” (Boehringer Ingelheim International GmbH, priority 2020, dated 2023).

How the values were obtained:
Format in all cases: cell-based
HER2 YVMA = target: T1, HER2 YVMA (Homo sapiens, UniProt P04626, INS775YVMA); assay: pHER2 (ERBB2) YVMA assay: phosphorylation of HER2 YVMA at Tyr1221/1222 in HEK cells (AlphaScreen Surefire); conditions: doxycycline induced, 4 h with compound
T1 construct: expressed in transfected cells; host or cells: human HEK cells, retroviral transduction, doxycycline-inducible expression
Protocol: For the assay, HEK HER2 YVMA cells are seeded in MEM medium with 10% FBS. 4 hours prior to compound addition, HER2 YVMA expression is induced using 1 μg/mL Doxycycline. […] Subsequently, 60.000 cells/well in 60 μL are added. Cells are incubated with compound for 4 h at 37° C. […] The mixture is incubated at a temperature of 20-25° C. with shaking (700 rpm) for 20 min. After centrifugation, 4 μL of the lysate are transferred to Proxiplates. […] Plates are shaken for 1 min (1400 rpm) and incubated for 2 h at a temperature of 20-25° C. in the dark. […] Plates are shaken for 1 min (1400 rpm) and incubated for 2 h at a temperature of 20-25° C. in the dark. Plates are subsequently analyzed using an Envision reader platform. […] IC50 values are computed from these values in the MEGASTAR IC50 application using a 4 parametric logistic model. […] The results of the assay are provided as IC50 values.

EGFR wild type (WT) = target: T2, EGFR wild type (WT) (Homo sapiens, UniProt P00533); assay: pEGFR assay: phosphorylation of EGFR at Tyr1068 in HEK cells expressing EGFR WT (AlphaScreen Surefire); conditions: 4 h with compound
T2 construct: expressed in transfected cells; host or cells: human HEK cells (ATCC CRL-1573), retroviral transduction
Protocol: This assay quantifies the phosphorylation of EGFR at Tyr1068 and is used to measure the inhibitory effect of compounds on the transgenic EGFR wild type (WT) protein expressed in HEK cells.
Transduced cells are selected using puromycin. p-EGFR Tyr1068 is determined using the AlphaScreen Surefire pEGF Receptor (Tyr1068) Assay (PerkinElmer, TGRERS). For the assay, HEK EGFR WT cells are seeded in MEM medium with 10% FBS. […] Subsequently, 60.000 cells/well in 60 μL are added. Cells are incubated with compound for 4 h at 37° C. […] The mixture is incubated at a temperature of 20-25° C. with shaking (700 rpm) for 20 min. After centrifugation, 4 μL of the lysate are transferred to Proxiplates. […] Plates are shaken for 1 min (1400 rpm) and incubated for 2 h at a temperature of (20-25° C.) in the dark. […] Plates are shaken for 1 min (1400 rpm) and incubated for 2 h at a temperature of (20-25° C.) in the dark. Plates are subsequently analyzed using an Envision reader platform. […] IC50 values are computed from these values in the MEGASTAR IC50 application using a 4 parametric logistic model.
This cellular phospho-EGFR (pEGFR) compound dose-response assay quantifies the phosphorylation of EGFR at Tyr1068 in HEK cells expressing EGFR WT. The results of the assay are provided as IC50 values.

[1] = test system: NCI-H2170 (HER2 wild type) cells; assay: Tumor cell line proliferation assay, NCI-H2170 (HER2 wild type), CellTiter-Glo; conditions: Homo sapiens, 72 h, read-out: GI50 NCI H-2170 HER2 wt amp.
Protocol: (§1) For proliferation assays, NCI-H2170 (HER2 wild type), NCI-H2170 HER2 YVMA and EGFR WT dependent A431 cells are used. NCI-H2170 HER2 YVMA or NCI-H2170 cells are seeded into 96-well plates at 750 cells/60 μL in growth media (RPMI ATCC+10% FCS, +Penicillin/Streptomycin). […] Compounds are added by using a HP D3000 Digital Dispenser one day after plating the cells. All treatments are performed in technical triplicates. Treated cells are incubated for 72 h at 37° C. with 5% CO2. CellTiter-Glo® Luminescent Cell Viability Assay (Promega) is performed and chemoluminescence is measured by using the multilabel Plate Reader VICTOR X4. The raw data are imported into and analyzed with the Boehringer Ingelheim proprietary software MegaLab (curve fitting based on the program PRISM, GraphPad Inc.).

[2] = test system: NCI-H2170 HER2 YVMA cells; assay: Tumor cell line proliferation assay, NCI-H2170 HER2 YVMA, CellTiter-Glo; conditions: Homo sapiens, 72 h, read-out: GI50 NCI H-2170 HER2 YVMA
Source text: HER2 YVMA Tumor Cell Line Model Generation and Proliferation Assays
Homology-directed genome engineering is employed to insert a 12 nucleotide sequence encoding YVMA into Exon 20 of the genomic HER2 locus in NCI-H2170 cells. […] The DNA template containing the HER2 exon 20 YVMA insertion variant was obtained from GenScript. PCR followed by Sanger sequencing is used to confirm the presence of the 12-nucleotide insertion in HER2 Exon 20 resulting in the YVMA amino acid duplication.
as §1

[3] = test system: EGFR WT dependent A431 cells; assay: Tumor cell line proliferation assay, EGFR WT dependent A431 cells, CellTiter-Glo; conditions: Homo sapiens, A-431, 72 h, read-out: GI50 A431 EGFR wt amp.
Protocol: as §1

Ba/F3 cells HER2 WT = assay: Ba/F3 proliferation assay, HER2 WT, CellTiter-Glo; conditions: Mus musculus, BaF3, 72 h
Protocol: (§2) Ba/F3 Cell Model Generation and Proliferation Assays
(§3) Plasmids containing HER2 mutants and EGFR WT were obtained from GeneScript. To generate EGFR/HER2-dependent Ba/F3 models, Ba/F3 cells are transduced with retroviruses containing vectors that harbor EGFR WT, HER2 WT or HER2 mutants (YVMA). Platinum-E cells (Cell Biolabs) are used for retrovirus packaging. Retrovirus is added to Ba/F3 cells. To ensure infection, 4 μg/mL polybrene is added and cells are spin-infected. Infection efficiency is confirmed by measuring GFP-positive cells using a cell analyzer. Cells with an infection efficiency of 10% to 20% are further cultivated and puromycin selection with 1 μg/mL is initiated. As a control, parental Ba/F3 cells are used to assess the selection status. Selection is considered successful when parental Ba/F3 cells cultures die. To evaluate the transforming potential of HER2 mutations, the growth medium is no longer supplemented with IL-3. Ba/F3 cells harboring the empty vector are used as a control. A switch from IL-3 to EGF is performed for Ba/F3 cells expressing EGFR WT known for its dependency on EGF ligand. Approximately ten days before conducting the experiments, puromycin is left out. For proliferation assays (data in tables 10 and 12), Ba/F3 cells are seeded into 96-well plates at 5×10^3 cells/100 μL in growth media. Compounds are added by using a HP D3000 Digital Dispenser. All treatments are performed in technical triplicates. Treated cells are incubated for 72 h at 37° C. with 5% CO2. A CellTiter-Glo® Luminescent Cell Viability Assay (Promega) is performed and chemoluminescence is measured by using the multilabel Plate Reader VICTOR X4. The raw data are imported into and analyzed with the Boehringer Ingelheim proprietary software MegaLab (curve fitting based on the program PRISM, GraphPad Inc.).

[4] = test system: Ba/F3 cells HER2 mutants (YVMA); assay: Ba/F3 proliferation assay, HER2 YVMA, CellTiter-Glo; conditions: Mus musculus, BaF3, 72 h
Protocol: as §2, §3

[5] = test system: Ba/F3 cells expressing EGFR WT; assay: Ba/F3 proliferation assay, EGFR WT (EGF dependent), CellTiter-Glo; conditions: Mus musculus, BaF3, EGF instead of IL-3, 72 h, read-out: GI50 BAF3 EGF dep.
Protocol: as §2, §3

T1 sequence (P04626 with tags, fused parts or gaps INS775YVMA): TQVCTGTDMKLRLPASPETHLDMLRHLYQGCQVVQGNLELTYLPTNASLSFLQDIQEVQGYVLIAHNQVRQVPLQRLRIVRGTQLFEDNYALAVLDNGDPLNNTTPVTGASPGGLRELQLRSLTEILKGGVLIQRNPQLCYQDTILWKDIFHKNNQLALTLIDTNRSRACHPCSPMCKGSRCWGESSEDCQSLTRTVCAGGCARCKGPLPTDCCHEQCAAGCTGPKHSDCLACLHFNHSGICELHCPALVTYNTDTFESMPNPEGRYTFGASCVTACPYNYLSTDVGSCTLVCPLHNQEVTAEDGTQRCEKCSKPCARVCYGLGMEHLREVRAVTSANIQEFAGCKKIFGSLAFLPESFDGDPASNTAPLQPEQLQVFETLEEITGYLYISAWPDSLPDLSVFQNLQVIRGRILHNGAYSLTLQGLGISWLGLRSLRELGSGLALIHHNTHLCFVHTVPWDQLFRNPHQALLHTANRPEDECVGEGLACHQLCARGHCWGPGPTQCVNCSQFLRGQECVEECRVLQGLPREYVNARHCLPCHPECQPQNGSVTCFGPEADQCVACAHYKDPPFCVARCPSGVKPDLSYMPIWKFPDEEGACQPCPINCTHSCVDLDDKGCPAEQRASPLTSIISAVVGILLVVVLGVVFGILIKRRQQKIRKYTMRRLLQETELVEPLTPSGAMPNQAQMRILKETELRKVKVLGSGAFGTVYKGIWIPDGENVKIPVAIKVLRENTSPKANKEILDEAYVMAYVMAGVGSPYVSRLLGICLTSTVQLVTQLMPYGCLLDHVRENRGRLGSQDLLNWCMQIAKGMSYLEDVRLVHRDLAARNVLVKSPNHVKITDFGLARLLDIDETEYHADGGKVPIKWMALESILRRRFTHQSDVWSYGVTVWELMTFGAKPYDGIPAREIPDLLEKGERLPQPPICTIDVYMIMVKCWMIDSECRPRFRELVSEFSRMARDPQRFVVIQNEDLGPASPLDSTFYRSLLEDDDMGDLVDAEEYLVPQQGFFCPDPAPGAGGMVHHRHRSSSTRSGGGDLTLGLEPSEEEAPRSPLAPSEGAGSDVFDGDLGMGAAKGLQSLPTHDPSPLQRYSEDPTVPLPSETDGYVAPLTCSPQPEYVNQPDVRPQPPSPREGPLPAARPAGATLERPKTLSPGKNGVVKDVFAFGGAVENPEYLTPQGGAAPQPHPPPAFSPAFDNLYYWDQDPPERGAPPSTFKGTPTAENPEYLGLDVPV
T2 sequence (P00533 25-1210): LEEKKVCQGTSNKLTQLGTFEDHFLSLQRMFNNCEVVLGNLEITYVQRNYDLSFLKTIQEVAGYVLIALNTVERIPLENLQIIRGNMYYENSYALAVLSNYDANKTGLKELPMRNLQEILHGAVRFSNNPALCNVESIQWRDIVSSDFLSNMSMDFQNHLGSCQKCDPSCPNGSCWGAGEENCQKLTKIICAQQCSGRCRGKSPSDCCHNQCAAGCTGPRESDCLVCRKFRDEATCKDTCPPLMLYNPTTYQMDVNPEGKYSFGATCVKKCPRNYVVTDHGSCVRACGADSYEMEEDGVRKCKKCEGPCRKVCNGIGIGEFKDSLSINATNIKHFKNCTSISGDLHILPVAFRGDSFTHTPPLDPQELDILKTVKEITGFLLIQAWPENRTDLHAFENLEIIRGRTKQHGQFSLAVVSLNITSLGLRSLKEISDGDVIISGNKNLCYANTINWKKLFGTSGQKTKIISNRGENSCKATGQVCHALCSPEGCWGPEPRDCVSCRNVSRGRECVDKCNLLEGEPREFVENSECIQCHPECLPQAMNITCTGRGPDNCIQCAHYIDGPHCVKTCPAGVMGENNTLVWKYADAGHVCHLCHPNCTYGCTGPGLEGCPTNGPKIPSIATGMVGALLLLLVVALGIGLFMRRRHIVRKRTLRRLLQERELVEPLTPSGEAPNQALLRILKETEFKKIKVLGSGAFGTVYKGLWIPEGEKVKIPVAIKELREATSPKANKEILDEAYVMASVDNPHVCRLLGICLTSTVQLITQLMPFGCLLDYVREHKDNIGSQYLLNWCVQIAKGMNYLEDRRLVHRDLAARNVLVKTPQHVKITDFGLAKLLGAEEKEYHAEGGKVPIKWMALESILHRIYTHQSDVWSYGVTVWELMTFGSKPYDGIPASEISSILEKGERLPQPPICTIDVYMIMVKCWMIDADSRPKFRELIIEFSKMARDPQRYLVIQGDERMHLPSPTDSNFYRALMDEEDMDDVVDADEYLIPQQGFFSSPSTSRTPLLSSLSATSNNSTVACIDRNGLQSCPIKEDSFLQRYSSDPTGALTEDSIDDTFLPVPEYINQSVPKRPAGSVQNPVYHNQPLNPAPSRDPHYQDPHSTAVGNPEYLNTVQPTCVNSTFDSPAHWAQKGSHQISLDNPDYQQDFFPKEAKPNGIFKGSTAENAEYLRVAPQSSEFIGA

| Structure (SMILES) | IC50 (HER2 YVMA) [nM] | IC50 (EGFR wild type (WT)) [nM] | GI50 [3] [nM] | GI50 (Ba/F3 cells HER2 WT) [nM] | GI50 [4] [nM] | GI50 [5] [nM] | GI50 [1] [nM] | GI50 [2] [nM] |
| --- | --- | --- | --- | --- | --- | --- | --- | --- |
| C=CC(=O)NC1CN(c2ncc3ncnc(Nc4ccc(Oc5ccn6ncnc6c5)c(C)c4)c3n2)C1 [Example I-09] | 26 | 715 | > 5000 | 1 | 29 | 2240 | 9 | 75 |
| C=CC(=O)NC1CN(c2ncc3ncnc(Nc4ccc(Oc5ccc6c(c5)ncn6C)c(Cl)c4)c3n2)C1 [Example I-08] | 58 | 336 | 1500 | 2 | 36 | 2300 | 8 | 44 |
| C=CC(=O)NC1CN(c2ncc3ncnc(Nc4ccc(Oc5cnc6c(c5)ncn6C)c(C)c4)c3n2)C1 [Example I-13] | 28 | 429 | > 5000 | 1 | 32 | > 2000 | 19 | 82 |
| C=CC(=O)NC1CCN(c2ncc3ncnc(Nc4ccc(Oc5ccn6ncnc6c5)c(C)c4)c3n2)CC1 [Example I-11] | 22 | 521 | 1250 | 2 | 28 | > 2000 | 8 | 172 |
| C#Cc1cc(Nc2ncnc3cnc(N4CC(NC(=O)C=C)C4)nc23)ccc1Oc1ccn2ncnc2c1 [Example I-10] | 24 | 217 | 1460 | 3 | 35 | 1650 | 12 | 126 |

Stronger by IC50 (HER2 YVMA), values ahead:

| IC50 (HER2 YVMA) [nM] | IC50 (EGFR wild type (WT)) [nM] | GI50 [3] [nM] | GI50 (Ba/F3 cells HER2 WT) [nM] | GI50 [4] [nM] | GI50 [5] [nM] | Structure (SMILES) | GI50 [1] [nM] | GI50 [2] [nM] |
| --- | --- | --- | --- | --- | --- | --- | --- | --- |
| 16 | 230 | > 5000 | 2 | 18 | 1750 | C=CC(=O)NC1CCN(c2ncc3ncnc(Nc4ccc(Oc5ccn6ccnc6c5)c(C)c4)c3n2)CC1 [Example I-12] | 8 | 71 |
| 11 | 73 | > 2000 | 2 | 17 | 756 | C=CC(=O)N1CCC(Nc2ncc3ncnc(Nc4ccc(Oc5ccc6c(c5)ncn6C)c(C)c4)c3n2)CC1 [Example I-14] | 10 | 37 |
| 10 | 315 | > 5000 | 1 | 21 | 1880 | C=CC(=O)NC1CCN(c2ncc3ncnc(Nc4ccc(Oc5ccc6c(c5)ncn6C)c(Cl)c4)c3n2)CC1 [Example I-05] | 8 | 55 |
| 5 | 23 | 660 | 1 | 10 | 375 | C=CC(=O)N1CCC(Nc2ncc3ncnc(Nc4ccc(Oc5ccn6ncnc6c5)c(C)c4)c3n2)CC1 [Example I-16] | 4 | 19 |
